Measurements from PubChem BioAssay (NCI).
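1) Cells in 96-well plates. 2) Compound, 48 h, 5 concentrations. 3) Linear interpolation between surrounding doses. 4) Unreached endpoint = highest concentration. GI50 = concentration required for 50% inhibition of growth. TGI: total growth inhibition.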

How the values were obtained:
Experiment in all cases: inhibition of tumour cell growth, NCI panel, 48 h
ACHN renal = system: ACHN renal
CAKI-1 renal = system: CAKI-1 renal
K-562 leukemia = system: K-562 leukemia
RXF 393 renal = system: RXF 393 renal
SF-268 CNS = system: SF-268 CNS
SF-295 CNS = system: SF-295 CNS
SK-MEL-2 melanoma = system: SK-MEL-2 melanoma
SN12C renal = system: SN12C renal
RPMI-8226 leukemia = system: RPMI-8226 leukemia
PC-3 prostate = system: PC-3 prostate

O=c1c2cccnc2ncn1CCN1CCCCC1
TGI (ACHN renal): > 100 µM | TGI (CAKI-1 renal): > 100 µM | TGI (K-562 leukemia): > 100 µM | TGI (RXF 393 renal): > 100 µM | TGI (SF-268 CNS): > 100 µM | TGI (SF-295 CNS): > 100 µM | TGI (SK-MEL-2 melanoma): > 100 µM | TGI (SN12C renal): > 100 µM

CN(C)CC1CCCC/C1=N/O (stereo not given)
TGI (ACHN renal): > 100 µM | TGI (CAKI-1 renal): > 100 µM | TGI (K-562 leukemia): > 100 µM | TGI (RPMI-8226 leukemia): > 100 µM | TGI (RXF 393 renal): > 100 µM | TGI (SF-268 CNS): > 100 µM | TGI (SF-295 CNS): > 100 µM | TGI (SK-MEL-2 melanoma): > 100 µM | TGI (SN12C renal): > 100 µM

CC(=O)[O-].CC(=O)[O-].O=C(N/N=C/c1cc(Cl)cc(Cl)c1O)c1ccncc1.[Cu+2]
TGI (ACHN renal): > 100 µM | TGI (K-562 leukemia): > 100 µM | TGI (RPMI-8226 leukemia): > 100 µM | TGI (RXF 393 renal): > 100 µM | TGI (SF-268 CNS): > 100 µM | TGI (SF-295 CNS): > 100 µM | GI50 (SK-MEL-2 melanoma): > 100 µM | TGI (SK-MEL-2 melanoma): > 100 µM | TGI (SN12C renal): > 100 µM

COc1ccc(/C=C/COC(C)=O)cc1OC
TGI (ACHN renal): > 100 µM | TGI (CAKI-1 renal): > 100 µM | TGI (K-562 leukemia): > 100 µM | TGI (RPMI-8226 leukemia): > 100 µM | TGI (RXF 393 renal): > 100 µM | TGI (SF-268 CNS): > 100 µM | TGI (SF-295 CNS): > 100 µM | TGI (SK-MEL-2 melanoma): > 100 µM | TGI (SN12C renal): > 100 µM

CN(C)C=Nc1nc(=O)n(C2CCC(CO)O2)cc1F (stereo not given)
TGI (ACHN renal): > 100 µM | TGI (CAKI-1 renal): > 100 µM | TGI (K-562 leukemia): > 100 µM | TGI (RPMI-8226 leukemia): > 100 µM | TGI (RXF 393 renal): > 100 µM | TGI (SF-268 CNS): > 100 µM | TGI (SF-295 CNS): > 100 µM | TGI (SK-MEL-2 melanoma): > 100 µM | TGI (SN12C renal): > 100 µM

Cc1nc(-c2nc(C)c(C(=O)NNC(=O)C[n+]3ccccc3)s2)sc1C(=O)NNC(=O)C[n+]1ccccc1
TGI (ACHN renal): > 100 µM | TGI (CAKI-1 renal): 85.1 µM | TGI (K-562 leukemia): > 100 µM | TGI (RPMI-8226 leukemia): > 100 µM | TGI (RXF 393 renal): > 100 µM | TGI (SF-268 CNS): > 100 µM | TGI (SF-295 CNS): > 100 µM | TGI (SK-MEL-2 melanoma): > 100 µM | TGI (SN12C renal): > 100 µM

CCCCCCCCCCSC(=N)N (tested in a mixture with another compound)
GI50 (ACHN renal): 2.86 µM | TGI (ACHN renal): 10.1 µM | GI50 (CAKI-1 renal): 2.03 µM | TGI (CAKI-1 renal): 5.04 µM | GI50 (K-562 leukemia): 1.72 µM | TGI (K-562 leukemia): 5.88 µM | GI50 (PC-3 prostate): 5.01 µM | TGI (PC-3 prostate): 20.1 µM | GI50 (RPMI-8226 leukemia): 2.53 µM | TGI (RPMI-8226 leukemia): 6.31 µM | GI50 (RXF 393 renal): 2.55 µM | TGI (RXF 393 renal): 7.23 µM | GI50 (SF-268 CNS): 4.01 µM | TGI (SF-268 CNS): 17.6 µM | GI50 (SF-295 CNS): 3.79 µM | TGI (SF-295 CNS): 14.3 µM | GI50 (SN12C renal): 6.28 µM | TGI (SN12C renal): 21.6 µM

O=C(O)CSc1n[nH]c(-c2ccccc2O)n1
TGI (ACHN renal): > 100 µM | TGI (CAKI-1 renal): > 100 µM | TGI (K-562 leukemia): > 100 µM | TGI (RPMI-8226 leukemia): > 100 µM | TGI (RXF 393 renal): > 100 µM | TGI (SF-268 CNS): > 100 µM | TGI (SF-295 CNS): > 100 µM | TGI (SK-MEL-2 melanoma): > 100 µM | TGI (SN12C renal): > 100 µM

C#Cc1cccc(Nc2nc3cc([N+](=O)[O-])ccc3nc2Nc2ccc(O)cc2)c1
GI50 (ACHN renal): 1.61 µM | TGI (ACHN renal): 4.01 µM | GI50 (CAKI-1 renal): 2.19 µM | TGI (CAKI-1 renal): 5.04 µM | GI50 (K-562 leukemia): 2.1 µM | TGI (K-562 leukemia): 6.41 µM | GI50 (PC-3 prostate): 1.65 µM | TGI (PC-3 prostate): 3.91 µM | GI50 (RPMI-8226 leukemia): 2.24 µM | TGI (RPMI-8226 leukemia): 8 µM | GI50 (RXF 393 renal): 1.73 µM | TGI (RXF 393 renal): 3.58 µM | GI50 (SF-268 CNS): 1.56 µM | TGI (SF-268 CNS): 3.45 µM | GI50 (SK-MEL-2 melanoma): 2.07 µM | TGI (SK-MEL-2 melanoma): 4.36 µM

CCCOc1nc(N)c2cnn(C3CCCCO3)c2n1 (stereo not given)
TGI (ACHN renal): > 100 µM | TGI (CAKI-1 renal): > 100 µM | TGI (K-562 leukemia): > 100 µM | TGI (RPMI-8226 leukemia): > 100 µM | TGI (RXF 393 renal): > 100 µM | TGI (SF-268 CNS): > 100 µM | TGI (SF-295 CNS): > 100 µM | TGI (SK-MEL-2 melanoma): > 100 µM | TGI (SN12C renal): > 100 µM

CN(C)C(=S)/N=c1\ssc(=S)n1C1CCCCC1
TGI (ACHN renal): > 100 µM | TGI (CAKI-1 renal): 90.6 µM | TGI (K-562 leukemia): 52.6 µM | TGI (RXF 393 renal): > 100 µM | TGI (SF-268 CNS): > 100 µM | TGI (SF-295 CNS): > 100 µM | TGI (SK-MEL-2 melanoma): > 100 µM | TGI (SN12C renal): > 100 µM

Cc1cc2c(cc1C)[n+](=O)c(C(=O)c1ccccc1)c(C(F)F)n2[O-]
GI50 (ACHN renal): 18 µM | TGI (ACHN renal): > 100 µM | GI50 (CAKI-1 renal): 15.5 µM | TGI (CAKI-1 renal): 71.7 µM | GI50 (K-562 leukemia): 10.1 µM | TGI (K-562 leukemia): > 100 µM | GI50 (PC-3 prostate): 16.1 µM | TGI (PC-3 prostate): > 100 µM | GI50 (RPMI-8226 leukemia): 5.81 µM | TGI (RPMI-8226 leukemia): 43.9 µM | GI50 (SF-268 CNS): 13 µM | TGI (SF-268 CNS): > 100 µM | GI50 (SF-295 CNS): 7.27 µM | TGI (SF-295 CNS): 42.5 µM | GI50 (SK-MEL-2 melanoma): 21.2 µM | TGI (SK-MEL-2 melanoma): 78.3 µM | GI50 (SN12C renal): 25.7 µM | TGI (SN12C renal): > 100 µM

O=S1C(=c2ccc(=C3Sc4ccccc4S3)cc2)Sc2ccccc21 (stereo not given)
TGI (ACHN renal): 37.6 µM | TGI (CAKI-1 renal): > 91.1 µM | TGI (K-562 leukemia): > 100 µM | TGI (RPMI-8226 leukemia): > 100 µM | TGI (RXF 393 renal): > 57.7 µM | TGI (SF-268 CNS): 37.3 µM | TGI (SF-295 CNS): 31.2 µM | TGI (SK-MEL-2 melanoma): 50.6 µM | TGI (SN12C renal): 29.3 µM

Cc1ccc(S(=O)(=O)N2CCC2c2ccccc2)cc1 (stereo not given)
TGI (ACHN renal): > 100 µM | TGI (K-562 leukemia): > 100 µM | TGI (RPMI-8226 leukemia): > 100 µM | TGI (RXF 393 renal): > 100 µM | TGI (SF-268 CNS): > 100 µM | TGI (SF-295 CNS): > 100 µM | TGI (SK-MEL-2 melanoma): > 100 µM | TGI (SN12C renal): > 100 µM

O=c1[nH]c(-c2ccccc2)nc2cc(Cl)ccc12
TGI (ACHN renal): > 100 µM | TGI (CAKI-1 renal): > 100 µM | TGI (K-562 leukemia): > 100 µM | TGI (RPMI-8226 leukemia): > 100 µM | TGI (RXF 393 renal): > 100 µM | TGI (SF-295 CNS): > 100 µM | TGI (SK-MEL-2 melanoma): > 100 µM

COc1c(CC(C)=O)ccc2c1C(=O)c1ccc(C=O)c(OC(C)=O)c1C2=O
TGI (ACHN renal): 51.3 µM | TGI (CAKI-1 renal): 47 µM | TGI (K-562 leukemia): > 100 µM | TGI (RPMI-8226 leukemia): 63.3 µM | TGI (RXF 393 renal): 25.4 µM | TGI (SF-295 CNS): 53.3 µM | TGI (SK-MEL-2 melanoma): 30.3 µM | TGI (SN12C renal): 27.6 µM

CN(C)CC1CCC/C1=N/OC(=O)c1ccccc1 (stereo not given)
TGI (ACHN renal): > 100 µM | TGI (CAKI-1 renal): > 100 µM | TGI (K-562 leukemia): > 100 µM | TGI (RPMI-8226 leukemia): > 100 µM | TGI (RXF 393 renal): > 100 µM | TGI (SF-268 CNS): > 100 µM | TGI (SF-295 CNS): > 100 µM | TGI (SK-MEL-2 melanoma): > 100 µM | TGI (SN12C renal): > 100 µM

COc1ccc2c(c1)[n+]([O-])c(C(N)=O)c(N)[n+]2[O-]
TGI (ACHN renal): > 100 µM | TGI (CAKI-1 renal): > 100 µM | TGI (K-562 leukemia): > 100 µM | TGI (RPMI-8226 leukemia): > 100 µM | TGI (SF-295 CNS): > 100 µM | TGI (SK-MEL-2 melanoma): > 100 µM | TGI (SN12C renal): > 100 µM

O=C(NC1C=CCC2C(=O)N(c3ccccc3)C(=O)C12)OCc1ccccc1 (stereo not given)
TGI (ACHN renal): > 100 µM | TGI (CAKI-1 renal): > 100 µM | TGI (K-562 leukemia): > 100 µM | TGI (RPMI-8226 leukemia): > 100 µM | TGI (RXF 393 renal): > 100 µM | TGI (SF-268 CNS): > 100 µM | TGI (SF-295 CNS): > 100 µM | TGI (SK-MEL-2 melanoma): > 100 µM | TGI (SN12C renal): > 100 µM

C[C@@H]1CC[C@H]2C(C)(C)[C@H]3C[C@@]12CC[C@@]3(C)O
TGI (ACHN renal): > 100 µM | TGI (CAKI-1 renal): > 100 µM | TGI (K-562 leukemia): > 100 µM | TGI (PC-3 prostate): > 100 µM | TGI (RPMI-8226 leukemia): 53.6 µM | TGI (SF-268 CNS): > 100 µM | TGI (SF-295 CNS): > 100 µM | TGI (SK-MEL-2 melanoma): > 100 µM | TGI (SN12C renal): 60.5 µM

Fc1cc(-c2nnc3n2N=C(c2ccc(Cl)cc2)CS3)c(Cl)cc1Cl
GI50 (ACHN renal): 3.22 µM | TGI (ACHN renal): 9.58 µM | GI50 (CAKI-1 renal): 4.61 µM | TGI (CAKI-1 renal): 17.4 µM | GI50 (K-562 leukemia): 1.57 µM | TGI (K-562 leukemia): > 100 µM | GI50 (PC-3 prostate): 16.6 µM | TGI (PC-3 prostate): 31.6 µM | GI50 (RXF 393 renal): 5.57 µM | TGI (RXF 393 renal): 14.7 µM | GI50 (SF-268 CNS): 13.9 µM | TGI (SF-268 CNS): 33.1 µM | GI50 (SF-295 CNS): 17 µM | TGI (SF-295 CNS): 34.7 µM | GI50 (SK-MEL-2 melanoma): 27 µM | TGI (SK-MEL-2 melanoma): > 57.8 µM | GI50 (SN12C renal): 3.85 µM | TGI (SN12C renal): 16.8 µM
